Data published in US20070265164A1, “Active Substances for Increasing Pathogenic Defense in Plants and Methods for the Detection Thereof” (Bayer Cropscience GmbH, priority 2004, published 2007).

Key:
Assay type in all cases: in vivo
Set-up in all cases: fold induction: dose or concentration left out as unconfirmed
[1] = test system: Contig3096_s_at, Allene oxide synthase; assay: GEP, barley DNA chip, probe set 1.16; details: barley leaves 6 h after spray application, median induction factor vs control; for fold induction: Hordeum vulgare, topical, rates of Table 1 (S7 500), read-out: Expression value, 1.16 Contig3096_s_at
Method: (§1) Barley plants (cv. Baronesse) were grown in compost-filled pots (diameter: 10 cm) for 10 days in a controlled-environment cabinet under defined light, humidity and temperature conditions (white light, 70% atmospheric humidity, 24° C.). At the time of spray application, the seedlings were approximately 15 cm in size. The test substances selected in this example were molecules which differ markedly in their structure and which have a well documented pronounced safener effect, and other molecules which are known from the literature to have an effect on plant stress and pathogen tolerance (Table 1). The substances were prepared as stock solutions in DMSO (dimethyl sulfoxide) at c=10 mg/ml). This was used for preparing dilutions in water supplemented with 0.2% Agrotin (comprises polyvinyl alcohol, silicones, polysaccharides and pH regulators, manufacturer: Bayer CropScience AG, Monheim, Germany), as wetter, to give the application rates shown in the table. The amount of liquid for the spray application was 800 μl per pot, corresponding to 800 l/ha. For each 800 μl of spray mixture, 16 μl of EC premix: diacetone alcohol=1:6 were additionally added as formulation auxiliaries. The substances listed in Table 1 were applied to the leaves by means of a pneumatic spray pistol. Each substance was sprayed as 2 dosages, and all experiments were carried out as replicates (2 pots per substance). Sprayings with blank formulation without active ingredient were carried out as controls. After 6 hours, the leaves were harvested, frozen in liquid nitrogen and stored at −80° C. until further use. The labeled RNA probes for the DNA chip hybridization were prepared as described in the protocols (Expression Analysis, Technical Manual) from Affymetrix (Affymetrix Inc., 3380 Central Expressway, Santa Clara, Calif., USA). First, total RNA was isolated from in each case 500 mg of the harvested leaves. In each case 10 μg of total RNA was used for the first-strand and second-strand cDNA synthesis. The cDNA was amplified with T7 polymerase and simultaneously labeled with biotin-UTP. In each case, 20 μg of this biotinylated cDNA was employed for the hybridization of the barley genome array (Gene Chip Barleyl, order No.: 511012) from Affymetrix. This DNA microarray comprises DNA sequences of 22 840 genes which are composed of a total of 400 000 EST sequences. Thereafter, the DNA microarrays were washed in the Affymetrix Fluidics Station, stained with streptavidin/phycoerythrin (Molecular Probes, P/N S-866) and scanned with the matching Agilent Laser Scanner (Agilent Gene Array Scanner). The fluorescent data obtained were analyzed with the software Microarray Suite 5 from Affymetrix. After the quality had been checked, all DNA chip analyses were stored in a database. To determine the relative expression values for genes (induction factors, repression factors), test and control chips were compared with each other, and the scoring function set by the Affymetrix software was used as the basis. The 2 biological replications of one experiment were compared in each case with 2 control chips (blank formulation), and the 4 expression values obtained for each gene were used for calculating the median. These medians are shown in the results tables as induction factors. Similarity comparisons of expression profiles from different experiments and cluster analyses were carried out using the software GeneMaths 1.5 from Applied Maths (Applied Maths, Keistraat 120, 9830 Sint-Martens-Latem, Belgium).
(§2) Gene groups from specific metabolic pathways and signal transduction chains were put together by key word search in the annotations, of the genes, which were also provided by Affymetrix, and by Blast analyses (homology comparisons) of the DNA target sequences, i.e. of the positive sequence (identified on the basis of a modified expression profile) identified on the DNA chip, using gene sequences from other organisms, preferably plant organisms, with characterized functions. […]

[2] = test system: Contig5369_at, Pathogen-related protein; assay: GEP, barley DNA chip, probe set 4.2; details: barley leaves 6 h after spray application, median induction factor vs control; for fold induction: Hordeum vulgare, topical, rates of Table 1 (S7 500), read-out: Expression value, 4.2 Contig5369_at
Method: as §1, §2

[3] = test system: Contig1737_at, Probable lipoxygenase; assay: GEP, barley DNA chip, probe set 1.15; details: barley leaves 6 h after spray application, median induction factor vs control; for fold induction: Hordeum vulgare, topical, rates of Table 1 (S7 500), read-out: Expression value, 1.15 Contig1737_at
Method: as §1, §2

[4] = test system: Contig2330_x_at, 12-oxophytodienoic acid reductase; assay: GEP, barley DNA chip, probe set 1.19; details: barley leaves 6 h after spray application, median induction factor vs control; for fold induction: Hordeum vulgare, topical, rates of Table 1 (S7 500), read-out: Expression value, 1.19 Contig2330_x_at
Method: as §1, §2

[5] = test system: HI02E21u_s_at, Lipoxygenase (EC 1.13.11.12); assay: GEP, barley DNA chip, probe set 1.2; details: barley leaves 6 h after spray application, median induction factor vs control; for fold induction: Hordeum vulgare, topical, rates of Table 1 (S7 500), read-out: Expression value, 1.2 HI02E21u_s_at
Method: as §1, §2

[6] = test system: Contig15_a_at, GDSL-motif lipase/hydrolase-like protein; assay: GEP, barley DNA chip, probe set 1.9; details: barley leaves 6 h after spray application, median induction factor vs control; for fold induction: Hordeum vulgare, topical, rates of Table 1 (S7 500), read-out: Expression value, 1.9 Contig15_a_at
Method: as §1, §2

[7] = test system: Contig2631_at, Lipase-like Protein (jasmonic acid biosynthesis gene); assay: Gene expression profiling (GEP), barley DNA chip, probe set 1.1; details: barley leaves 6 h after spray application, median induction factor vs control; for fold induction: Hordeum vulgare, rates of Table 1 (S7 500)
Method: as §1, §2

[8] = test system: Contig2990_at, Chitinase (EC 3.2.1.14); assay: GEP, barley DNA chip, probe set 5.1; details: barley leaves 6 h after spray application, median induction factor vs control; for fold induction: Hordeum vulgare, topical, rates of Table 1 (S7 500), read-out: Expression value, 5.1 Contig2990_at
Method: as §1, §2

[9] = test system: Contig34_s_at, Putative proteinase inhibitor; assay: GEP, barley DNA chip, probe set 2.2; details: barley leaves 6 h after spray application, median induction factor vs control; for fold induction: Hordeum vulgare, topical, rates of Table 1 (S7 500), read-out: Expression value, 2.2 Contig34_s_at
Method: as §1, §2

[10] = test system: Contig12574_at, Putative lipoxygenase; assay: GEP, barley DNA chip, probe set 1.11; details: barley leaves 6 h after spray application, median induction factor vs control; for fold induction: Hordeum vulgare, rates of Table 1 (S7 500), read-out: Expression value, 1.11 Contig12574_at
Method: as §1, §2

[11] = test system: Contig2326_s_at, 12-oxophytodienoic acid reductase; assay: GEP, barley DNA chip, probe set 1.18; details: barley leaves 6 h after spray application, median induction factor vs control; for fold induction: Hordeum vulgare, topical, rates of Table 1 (S7 500), read-out: Expression value, 1.18 Contig2326_s_at
Method: as §1, §2

[12] = test system: Contig9556_at, 12-oxophytodienoate reductase 3; assay: GEP, barley DNA chip, probe set 1.8; details: barley leaves 6 h after spray application, median induction factor vs control; for fold induction: Hordeum vulgare, topical, rates of Table 1 (S7 500), read-out: Expression value, 1.8 Contig9556_at
Method: as §1, §2

[13] = test system: Contig2337_at, 12-oxophytodienoate reductase (OPR1); assay: GEP, barley DNA chip, probe set 1.20; details: barley leaves 6 h after spray application, median induction factor vs control; for fold induction: Hordeum vulgare, topical, rates of Table 1 (S7 500), read-out: Expression value, 1.20 Contig2337_at
Method: as §1, §2

[14] = rates of Table 1 (150 g a.i./ha, S7 500)

Row | Structure (SMILES) | fold induction [1] | fold induction [2] | fold induction [3] | fold induction [4] | fold induction [5] | fold induction [6] | fold induction [7] | fold induction [8] | fold induction [9] | fold induction [10] | fold induction [11] | fold induction [12] | fold induction [13] | other results
1 | O=C(NO)c1ccccc1O [S7, Salicyl hydroxamate] | – | – | – | – | – | – | – | – | – | – | – | – | – | Expression value, 1.16 Contig3096_s_at [1, 14]: 2.06 x times; Expression value, 4.2 Contig5369_at [2, 14]: 1.00 x times; Expression value, 1.15 Contig1737_at [3, 14]: 1.00 x times; Expression value, 1.19 Contig2330_x_at [4, 14]: 1.00 x times; Expression value, 1.2 HI02E21u_s_at [5, 14]: 1.00 x times; Expression value, 1.9 Contig15_a_at [6, 14]: 1.00 x times; Expression value, 1.1 Contig2631_at [7, 14]: 1.00 x times; Expression value, 5.1 Contig2990_at [8, 14]: 1.00 x times; Expression value, 2.2 Contig34_s_at [9, 14]: 4.50 x times; Expression value, 1.11 Contig12574_at [10, 14]: 1.00 x times; Expression value, 1.18 Contig2326_s_at [11, 14]: 1.00 x times; Expression value, 1.8 Contig9556_at [12, 14]: 1.00 x times; Expression value, 1.20 Contig2337_at [13, 14]: 1.00 x times
2 | O=C(O)c1cc(Cl)cc(Cl)c1O [S10] | 1 | 1 | 1 | 1 | 4.66 | 1 | 1 | 1 | 2.08 | 1 | 1 | 1 | 1 | –
3 | CSC(=O)c1cccc2nnsc12 [S8, Acibenzolar-S-methyl] | 2.68 | 1 | 1 | 1 | 1 | 1 | 1 | 1 | 3.68 | 2.11 | 1 | 1 | 1 | –
4 | CCOC(=O)C(Oc1ccc(Cl)c2cccnc12)C(=O)OCC [S5] | 1 | 1 | 1 | 1 | 1 | 0.46 | 1 | 1 | 1 | 1 | 1 | 1 | 1 | –
5 | COC(=O)C1=NN(c2ccc(Cl)cc2Cl)C(C)(C(=O)OC)C1 (stereo not drawn) [S1, Mefenpyr-dimethyl] | 1 | 2.35 | 1 | 4.03 | 1 | 0.35 | 1 | 4.17 | 1 | 0.5 | 2.31 | 1 | 4.89 | –
6 | O=C(O)C1=NN(c2ccc(Cl)cc2Cl)C(c2ccc(F)cc2)C1 (stereo not drawn) [S2] | 1 | 1 | 1 | 2.39 | 1 | 1 | 1 | 1 | 1 | 1 | 1 | 1 | 1 | –
